Drawing on the RepoRT retention time repository (doi:10.1038/s41586-021-03707-9), this text covers LC retention time for 96 molecules.

Data set [1] in a line: RP, Waters ACQUITY UPLC HSS C18, 100 × 2.1 mm, 1.7 µm, 40 °C, 0.35 mL/min, estimated dead time 0.63 min; A: water + 0.1% formic acid; B: methanol + 0.1% formic acid; gradient (min/%B) 0/0.5 4/70 4.5/98 5.4/98. As to conditions: stereoisomer not certain.
A short description of data set [2]: Waters ACQUITY UPLC BEH C18, 100 × 2.1 mm, 1.7 µm, 40 °C, 0.28 mL/min, estimated dead time 0.63 min; A: water + 6.5 mM ammonium hydroxide; B: methanol + 6.5 mM ammonium hydroxide; gradient (min/%B) 0/0.5 4/70 4.5/98 5.4/98. As to conditions: stereoisomer not certain.

As for `Cn1c(=O)c2c([nH]c(=O)n2C)n(C)c1=O`, the LC retention time in data set [1] is 3 min; in data set [2], 2.29 min.
For `CCC1(C)CC(=O)NC1=O` (configuration not stated) the same measures were 3.39 min and 3.44 min.
Regarding `CNCC(O)c1ccc(O)cc1` (configuration not stated), the LC retention time in data set [1] is 0.855 min; in data set [2], 1.96 min.
For `NCCCCC(NC(CCc1ccccc1)C(=O)O)C(=O)N1CCCC1C(=O)O` (configuration not stated) the same measures were 3.22 min and 2.96 min.
With `CSCCC(NC(C)=O)C(=O)O` (configuration not stated), the LC retention time in data set [1] was 2.98 min; in data set [2], 2.07 min.
On the same counts, the results for `COc1cc(C(=O)O)ccc1O` are 3.33 min and 0.869 min.
With `CNCCc1ccc(O)cc1`, the LC retention time was 1.79 min in data set [1] and 2.43 min in data set [2].
On the same counts, the results for `CC(=O)Nc1ccc(O)cc1` are 2.51 min and 2.58 min.
For `COc1ccc2[nH]cc(CCNC(C)=O)c2c1` the same measures were 4.05 min and 4.19 min.
With `O=c1[nH]c(=O)c2ncn(C3OC(CO)C(O)C3O)c2[nH]1` (configuration not stated), the LC retention time in data set [1] is 2.09 min; in data set [2] it was 1.11 min.
Turning to `Nc1ccnc(=O)[nH]1`, the LC retention time in data set [1] was 0.783 min; in data set [2] it was 1 min.
On the same counts, the results for `NC(CC(=O)O)C(=O)NC(Cc1ccccc1)C(=O)O` (configuration not stated) are 2.95 min and 1.73 min.
Turning to `Cc1ccc(S(=O)(=O)O)cc1`, the LC retention time was 3 min in data set [1] and 2.67 min in data set [2].
As for `Nc1ncnc2c1ncn2C1CC(O)C(COP(=O)(O)O)O1` (configuration not stated), the LC retention time was 1.56 min in data set [1] and 1.31 min in data set [2].
In the case of `COC(=O)Cc1c[nH]c2ccccc12`, the LC retention time is 4.85 min in data set [1] and 5.01 min in data set [2].
Take `CNC(=O)c1cccnc1`: the LC retention time in data set [1] was 1.82 min; in data set [2], 2.54 min.
On the same counts, the results for `CC12CCC(=O)C=C1CCC1C2C(O)CC2(C)C1CCC2(O)C(=O)CO` (configuration not stated) are 5.02 min and 5.22 min.
For `Cc1cc2nc3c(=O)[nH]c(=O)nc-3n(CC(O)C(O)C(O)CO)c2cc1C` (configuration not stated) the same measures were 3.5 min and 3.61 min.
For `CC1NC(=O)NC1CCCCCC(=O)O` (configuration not stated) the same measures were 3.88 min and 2.67 min.
In the case of `NCCCCCCCC(=O)O`, the LC retention time in data set [1] was 2.59 min; in data set [2] it was 1.95 min.
For `[2H]c1c([2H])c([2H])c(C(=O)NCC(=O)O)c([2H])c1[2H]` the same measures were 3.22 min and 2.42 min.
With `CC(C(=O)O)c1cccc(C(=O)c2ccccc2)c1` (configuration not stated), the LC retention time in data set [1] is 5.37 min; in data set [2] it was 4.61 min.
`CCC(C)C(=O)NCC(=O)O` (configuration not stated): the LC retention time was 2.97 min in data set [1] and 2.17 min in data set [2].
For `O=C(O)c1ccoc1` the same measures were 3.35 min and 0.886 min.
For `Nc1ccccc1C(=O)O` the same measures were 3.65 min and 1.76 min.
For `Cc1c[nH]c(=O)[nH]c1=O` the same measures were 1.88 min and 1.94 min.
On to `NC(Cc1ccc([N+](=O)[O-])cc1)C(=O)O` (configuration not stated), for which the LC retention time was 2.5 min in data set [1] and 2.58 min in data set [2].
On the same counts, the results for `Nc1ccn(C2CC(O)C(CO)O2)c(=O)n1` (configuration not stated) are 1.29 min and 1.73 min.
With `Nc1cc(C(=O)O)ccc1O`, the LC retention time in data set [1] was 1.25 min; in data set [2], 0.796 min.
On the same counts, the results for `O=c1ccn(C2OC(CO)C(O)C2O)c(=O)[nH]1` (configuration not stated) are 1.66 min and 1.67 min.
On the same counts, the results for `CC(=O)NCCCC(=O)O` are 1.95 min and 0.923 min.
For `NC(Cc1ccc(O)c([N+](=O)[O-])c1)C(=O)O` (configuration not stated) the same measures were 2.44 min and 1.1 min.
Turning to `Nc1c(O)cccc1C(=O)O`, the LC retention time in data set [1] is 2.57 min; in data set [2] it was 0.924 min.
On the same counts, the results for `CN(C)CCc1ccc(O)cc1` are 1.82 min and 3.89 min.
For `Oc1ccc(O)cc1`, the LC retention time in data set [1] is 2.83 min; in data set [2], 1.95 min.
On the same counts, the results for `NC(=O)C(N)Cc1c[nH]c2ccccc12` (configuration not stated) are 2.44 min and 3.46 min.
Take `CC(CCC(=O)O)C1CCC2C3C(O)CC4CC(O)CCC4(C)C3CC(O)C12C` (configuration not stated): the LC retention time in data set [2] was 4.99 min.
For the molecule `CCCC(=O)Nc1ccc(OCC(O)CNC(C)C)c(C(C)=O)c1` (configuration not stated), the LC retention time in data set [2] is 4.82 min.
Same read-out and setting: as for `O=C(CO)C(OC1OC(CO)C(O)C(O)C1O)C(O)C(O)CO` (configuration not stated), the figure is 0.828 min; as for `CC(CO)C(=O)O` (configuration not stated), 0.798 min; as for `Nc1nc2c(ncn2C2CC(O)C(COP(=O)(O)O)O2)c(=O)[nH]1` (configuration not stated), 0.923 min.
Regarding `O=S(=O)(O)Oc1c[nH]c2ccccc12`, the LC retention time in data set [2] is 2.59 min.
On to `O=Cc1cccc(O)c1`, for which the LC retention time in data set [2] was 3.55 min.
The same measure, in the same setting: as for `OCC1OC(OCC2OC(O)(CO)C(O)C2O)C(O)C(O)C1O` (configuration not stated), the figure is 0.892 min; as for `NCC(O)CCC(N)C(=O)O` (configuration not stated), 0.78 min; as for `O=Cc1c[nH]c2ccccc12`, 4.19 min.
Regarding `COc1ccc2[nH]cc(CCN)c2c1`, the LC retention time in data set [2] was 3.64 min.
With `O=C(O)CCc1cccc(O)c1`, the LC retention time in data set [2] is 2.24 min.
Same read-out and setting: as for `O=S(=O)(O)c1cccc2cccc(Nc3ccccc3)c12`, the figure is 5.12 min.
For the molecule `CC(C)CC(=O)C(=O)O`, the LC retention time in data set [2] was 2.48 min.
Take `CC(=O)Oc1cccc(O)c1`: the LC retention time in data set [2] is 3.06 min.
Same read-out and setting: as for `CSCCC(O)C(=O)O` (configuration not stated), the figure is 1.5 min; as for `O=C(O)c1c(O)cccc1O`, 2.9 min.
For `NC(=O)CCC(N)C(=O)O` (configuration not stated), the LC retention time in data set [2] was 0.764 min.
Same read-out and setting: then `O=C(O)c1cccc(O)c1O`, with 1.56 min.
Turning to `NC(=O)c1ccc[n+](C2OC(COP(=O)(O)OP(=O)(O)OCC3OC(n4cnc5c(=O)[nH]cnc54)C(O)C3O)C(O)C2O)c1` (configuration not stated), the LC retention time in data set [2] is 1.26 min.
`NC(CCSSCCC(N)C(=O)O)C(=O)O` (configuration not stated): the LC retention time in data set [2] was 0.929 min.
On the same count and under the same terms, as for `O=C(O)CCCCCCC(=O)O`, the figure is 0.826 min; as for `O=C(C=Cc1ccc(O)c(O)c1)OC(Cc1ccc(O)c(O)c1)C(=O)O` (configuration not stated), 3.14 min; as for `CC(C)=CC(=O)SCCNC(=O)CCNC(=O)C(O)C(C)(C)COP(=O)(O)OP(=O)(O)OCC1OC(n2cnc3c(N)ncnc32)C(O)C1OP(=O)(O)O` (configuration not stated), 2.95 min.
On the same count and under the same terms, as for `Cc1ccccc1C(=O)O`, the figure is 2.21 min; as for `C[N+](C)(C)CCCCC(N)C(=O)[O-]` (configuration not stated), 0.837 min; as for `Nc1ncnc2c1ncn2C1OC(COP(=O)(O)OP(=O)(O)OCC2OC(O)C(O)C2O)C(O)C1O` (configuration not stated), 0.924 min.
Still for that read-out and setting: as for `CCCCCCCC(=O)O`, the figure is 4.74 min; as for `O=C(O)C(=O)c1ccccc1`, 2.26 min.
For `C[N+](C)(C)CC(O)CC(=O)[O-]` (configuration not stated), the LC retention time in data set [2] was 1.23 min.
Take `NC(N)=Nc1nc(CSCCC(N)=NS(N)(=O)=O)cs1`: the LC retention time in data set [2] was 3.07 min.
For the molecule `Nc1ncnc2c1ncn2C1OC(COP(=O)(O)O)C(O)C1O` (configuration not stated), in data set [2], the LC retention time was 0.858 min.
As for `OCC1OC(Oc2ccc(O)cc2)C(O)C(O)C1O` (configuration not stated), the LC retention time in data set [2] was 1.81 min.
Still for that read-out and setting: then `CC([NH3+])C(=O)NCC(=O)[O-]` (configuration not stated), with 2.68 min; and `O=C(O)Cc1cccc(O)c1`, with 1.79 min; and `OCCNCCO`, with 0.945 min.
The same measure, in the same setting: as for `CCCC(CCC)C(=O)O`, the figure is 4.23 min; as for `O=C(O)C(=O)Cc1c[nH]c2ccccc12`, 3 min.
`O=S(=O)(O)CCO`: in data set [2], the LC retention time is 0.866 min.
On the same count and under the same terms, as for `O=C(O)CCCc1ccccc1`, the figure is 3.86 min.
The same measure, in the same setting: then `O=C(O)c1ccc2ccccc2c1O`, with 4.3 min; and `NCCC(=O)O`, with 0.761 min; and `O=C(O)CCCCCCCCCCCO`, with 4.86 min.
In the case of `NC(N)=NCCCC(N)C(=O)O` (configuration not stated), in data set [2], the LC retention time was 0.845 min.
For the molecule `CC(=O)NC(CS)C(=O)O` (configuration not stated), the LC retention time in data set [2] was 1.15 min.
The same measure, in the same setting: as for `O=c1[nH]c(=O)c2[nH]c(=O)[nH]c2[nH]1`, the figure is 0.828 min; as for `O=C(O)C1CCC(O)CC1` (configuration not stated), 0.776 min; as for `Oc1cccc2cccnc12`, 4.19 min.
The same measure, in the same setting: then `C[N+](C)(C)CC(=O)[O-]`, with 0.809 min; and `NC(Cc1ccccc1)C(=O)O` (configuration not stated), with 2.37 min.
Same read-out and setting: as for `CCCCC1=NC2(CCCC2)C(=O)N1Cc1ccc(-c2ccccc2-c2nn[nH]n2)cc1`, the figure is 5.32 min; as for `CC(C)(O)CC(=O)O`, 1.2 min; as for `CCCCC(CC)CCC(=O)O` (configuration not stated), 5.33 min.
As to `NC(CO)C(=O)O` (configuration not stated), the LC retention time in data set [2] was 0.761 min.
With `CC(=O)S`, the LC retention time in data set [2] is 2.35 min.
The same measure, in the same setting: as for `Cc1ccc(OS(=O)(=O)O)cc1`, the figure is 2.9 min; as for `NC(CO)Cc1cnc[nH]1` (configuration not stated), 1.28 min.
The same measure, in the same setting: then `O=CC(O)C(O)C(O)CO` (configuration not stated), with 0.839 min; and `Cc1cc(C(=O)O)ccc1O`, with 3.54 min; and `CCCCCCC(=O)O`, with 4.06 min.
